Data set [1] relates to RAW264.7. The data set can be described thus: Anti-inflammatory activity in mouse RAW264.7 cells assessed as reduction in LPS-induced MCP-1 production at 10 to 20 uM preincubated for 1 hr followed by LPS stimulation measured after 6 hrs by ELISA. It counts as functional, cell-based.
In data set [2] the test system is Staphylococcus aureus. The data set can be described thus: Potency index, ratio of melittin MIC to compound MIC for methicillin resistant Staphylococcus aureus CCARM 3089. The format is functional.
In another data set the test system is Salmonella typhimurium. The data set can be described thus: Antibacterial activity against Salmonella typhimurium KCTC 11926 after 24 hrs. It counts as functional, Salmonella enterica subsp. enterica serovar Typhimurium. The note with it: Salmonella enterica, KCTC 11926, 24 h.
For data set [3], the system named is Staphylococcus aureus. Briefly: Antibacterial activity against methicillin resistant Staphylococcus aureus CCARM 3095 after 24 hrs. The format is functional. The note with it: CCARM 3095, 24 h.
Data set [4] relates to RAW264.7. The data set can be described thus: Anti-inflammatory activity in mouse RAW264.7 cells assessed as reduction in LPS-induced TNF-alpha production at 10 to 20 uM preincubated for 1 hr followed by LPS stimulation measured after 6 hrs by ELISA. It counts as functional, cell-based.
Data set [5] has as its system Staphylococcus aureus. The data set can be described thus: Potency index, ratio of melittin MIC to compound MIC for methicillin resistant Staphylococcus aureus CCARM 3095. The format is functional.
Data set [6] relates to RAW264.7. Briefly: Anti-inflammatory activity in mouse RAW264.7 cells assessed as reduction in LPS-induced iNOS mRNA expression at 5 uM after 6 hrs by RT-PCR analysis. It counts as functional, cell-based.
In data set [7] the test system is Staphylococcus aureus. Briefly: Potency index, ratio of LL-37 MIC to compound MIC for methicillin resistant Staphylococcus aureus CCARM 3095. It counts as functional.
The subject of data set [8] is Staphylococcus aureus. The data set can be described thus: Antibacterial activity against methicillin resistant Staphylococcus aureus CCARM 3089 after 24 hrs. The note with it: CCARM 3089, 24 h. The format is functional.
For data set [9], the system named is Staphylococcus aureus. Briefly: Antibacterial activity against Staphylococcus aureus KCTC 1621 in presence of 2.5 mM CaCl2 after 24 hrs. The note with it: KCTC 1621, 24 h. The format is functional.
The test system of data set [10] is RAW264.7. The data set can be described thus: Cytotoxicity against mouse RAW264.7 cells up to 128 uM after 48 hrs by MTT assay. It counts as cell-based. The note with it: raw264.7, 48 h.
Data set [11] has as its system Staphylococcus aureus. Briefly: Antibacterial activity against Staphylococcus aureus KCTC 1621 in presence of 1 mM MgCl2 after 24 hrs. The format is functional. The note with it: KCTC 1621, 24 h.
In a further data set the test system is Pseudomonas aeruginosa. The data set can be described thus: Potency index, ratio of melittin MIC to compound MIC for multidrug-resistant Pseudomonas aeruginosa CCARM 2095. The format is functional.
Data set [12] has as its system Staphylococcus aureus. The data set can be described thus: Antibacterial activity against Staphylococcus aureus KCTC 1621 in presence of 4.5 mM KCl after 24 hrs. It counts as functional. The note with it: KCTC 1621, 24 h.
Data set [13] can be described thus: Hemolytic activity in human RBC at 96 uM after 1 hr relative to control. The format is ADME, cell-based, Erythrocyte. The note with it: red blood cells (RBC, erythrocytes), read-out: Activity.

Values after ≈ are worked out from the molar mass of the structure shown. Active and inactive are the calls of the source. The rule behind the calls is not given here.

For the compound `CC[C@H](C)[C@H](NC(=O)[C@H](CCCNC(=N)N)NC(=O)[C@@H](N)CCCCN)C(=O)N[C@H](C(=O)N[C@@H](CCCCN)C(=O)N[C@H](CC(C)C)C(=O)N[C@H](C(=O)N[C@@H](CC(C)C)C(=O)N[C@@H](CCCCN)C(=O)N[C@@H](Cc1c[nH]c2ccccc12)C(=O)N[C@@H](CC(C)C)C(=O)N[C@@H](CCCNC(=N)N)C(N)=O)[C@@H](C)CC)C(C)C`, the result in the data set with RAW264.7 [1], in the data set on RAW264.7 [4] and in the data set on RAW264.7 [6] was Active. The Ratio with Staphylococcus aureus [2], with Staphylococcus aureus [5], in the data set with Staphylococcus aureus [7] and in the data set with Pseudomonas aeruginosa was 2 - 4 throughout. In addition, the minimum inhibitory concentration (MIC) came out at 2 µM (≈ 3.13 µg/mL) against Salmonella typhimurium; 4 µM (≈ 6.26 µg/mL) in the data set on Staphylococcus aureus [3]; 4 µM (≈ 6.26 µg/mL) with Staphylococcus aureus [8]; 8 µM in the data set with Staphylococcus aureus [9]; 4 µM in the data set with Staphylococcus aureus [11]; 2 µM with Staphylococcus aureus [12]. Further, the Activity entry with RAW264.7 [10] is “Non-Toxic”.

For `CC[C@H](C)[C@H](NC(=O)[C@H](CC(C)C)NC(=O)[C@@H](CCCCN)NC(=O)[C@@H](NC(=O)[C@@H](NC(=O)[C@H](CCCNC(=N)N)NC(=O)[C@@H](N)CCCCN)[C@@H](C)CC)C(C)C)C(=O)N[C@@H](CC(C)C)C(=O)N[C@@H](CCCCN)C(=O)N[C@@H](Cc1c[nH]c2ccccc12)C(=O)N[C@@H](CC(C)C)C(=O)N[C@@H](CCCNC(=N)N)C(N)=O`, the outcome with RAW264.7 [1], with RAW264.7 [4] and with RAW264.7 [6] was Active. Further, the Ratio in the data set on Staphylococcus aureus [2], in the data set with Staphylococcus aureus [5], in the data set on Staphylococcus aureus [7] and in the data set with Pseudomonas aeruginosa was 2 - 4 throughout. Also, the MIC was found to be 2 µM (≈ 3.13 µg/mL) against Salmonella typhimurium; 4 µM (≈ 6.26 µg/mL) in the data set with Staphylococcus aureus [3]; 4 µM (≈ 6.26 µg/mL) in the data set with Staphylococcus aureus [8]; 4 µM with Staphylococcus aureus [9]; 8 µM in the data set with Staphylococcus aureus [11]; 2 µM in the data set on Staphylococcus aureus [12]. Also, the Activity result in the data set with RAW264.7 [10] was “Non-Toxic”.

Turning to `CC[C@H](C)[C@H](NC(=O)[C@H](CC(C)C)NC(=O)[C@H](CCCCN)NC(=O)[C@@H](NC(=O)[C@@H](NC(=O)[C@H](CCCNC(=N)N)NC(=O)[C@@H](N)CCCCN)[C@@H](C)CC)C(C)C)C(=O)N[C@@H](CC(C)C)C(=O)N[C@@H](CCCCN)C(=O)N[C@@H](Cc1c[nH]c2ccccc12)C(=O)N[C@@H](CC(C)C)C(=O)N[C@@H](CCCNC(=N)N)C(N)=O`, the outcome with RAW264.7 [1], with RAW264.7 [4] and with RAW264.7 [6] was Active. Further, the Ratio with Staphylococcus aureus [2], in the data set on Staphylococcus aureus [5], with Staphylococcus aureus [7] and in the data set on Pseudomonas aeruginosa was 2 - 4 throughout. The MIC with Salmonella typhimurium was found to be 2 µM (≈ 3.13 µg/mL); with Staphylococcus aureus [3] it was 4 µM (≈ 6.26 µg/mL); with Staphylococcus aureus [8], 4 µM (≈ 6.26 µg/mL); in the data set with Staphylococcus aureus [9], 2 µM; in the data set with Staphylococcus aureus [11] it was 8 µM; in the data set on Staphylococcus aureus [12], 2 µM. Also, the Activity entry with RAW264.7 [10] is “Non-Toxic”. Also, the hemolysis at 1 h, 96 µM in data set [13] is 50%.

Turning to `CC[C@H](C)[C@H](NC(=O)[C@H](CCCNC(=N)N)NC(=O)[C@@H](N)CCCCN)C(=O)N[C@H](C(=O)N[C@@H](CCCCN)C(=O)N[C@@H](CC(C)C)C(=O)N[C@H](CC(C)C)C(=O)N[C@@H](CC(C)C)C(=O)N[C@@H](CCCCN)C(=O)N[C@@H](Cc1c[nH]c2ccccc12)C(=O)N[C@@H](CC(C)C)C(=O)N[C@@H](CCCNC(=N)N)C(N)=O)C(C)C`, the outcome in the data set with RAW264.7 [1], in the data set on RAW264.7 [4] and in the data set with RAW264.7 [6] was Active. For the same compound, the Ratio in the data set with Staphylococcus aureus [2], with Staphylococcus aureus [5], in the data set on Staphylococcus aureus [7] and in the data set on Pseudomonas aeruginosa was 2 - 4 in each case. The MIC in the data set with Salmonella typhimurium was 2 µM (≈ 3.13 µg/mL); against Staphylococcus aureus [3], 4 µM (≈ 6.26 µg/mL); with Staphylococcus aureus [8], 4 µM (≈ 6.26 µg/mL); in the data set with Staphylococcus aureus [9] it was 4 µM; with Staphylococcus aureus [11], 8 µM; with Staphylococcus aureus [12], 2 µM. Further, the Activity entry with RAW264.7 [10] is “Non-Toxic”.
